According to the NIST ThermoML archive (doi:10.1021/je800110r):
Numbers after ± are expanded uncertainties.

Settings: 333.15 K, Liquid, Vibrating tube method

Measured: mass density

CCCCCCCCCC [decane]
727.2 ± 2.1 kg/m3: 33660 kPa | 33772 kPa
718.6 ± 2 kg/m3: 21861 kPa | 21931 kPa | 21967 kPa | 22038 kPa
725.9 ± 2.1 kg/m3: 31731 kPa | 31793 kPa | 31821 kPa | 31893 kPa
721.9 ± 2.1 kg/m3: 26374 kPa
721.2 ± 2.1 kg/m3: 25303 kPa
719.9 ± 2.1 kg/m3: 23539 kPa | 23623 kPa | 23657 kPa | 23697 kPa | 23726 kPa | 23831 kPa
717.7 ± 2 kg/m3: 20873 kPa | 20900 kPa | 20931 kPa | 20996 kPa
726.6 ± 2.1 kg/m3: 32696 kPa | 32737 kPa | 32780 kPa | 32850 kPa | 32883 kPa
726.2 ± 2.1 kg/m3: 32150 kPa
717.1 ± 2 kg/m3: 20029 kPa | 20150 kPa | 20188 kPa
716.6 ± 2 kg/m3: 19349 kPa | 19381 kPa | 19450 kPa | 19479 kPa | 19511 kPa | 19592 kPa
718.2 ± 2 kg/m3: 21409 kPa | 21462 kPa | 21500 kPa | 21529 kPa
719.7 ± 2.1 kg/m3: 23339 kPa | 23382 kPa | 23452 kPa | 23579 kPa
716.7 ± 2 kg/m3: 19540 kPa | 19568 kPa | 19616 kPa | 19711 kPa | 19731 kPa
725.4 ± 2.1 kg/m3: 30924 kPa | 31027 kPa | 31059 kPa | 31090 kPa | 31122 kPa | 31148 kPa
719.2 ± 2.1 kg/m3: 22771 kPa | 22816 kPa
716.4 ± 2 kg/m3: 19251 kPa | 19274 kPa | 19417 kPa
717.4 ± 2 kg/m3: 20425 kPa | 20525 kPa | 20606 kPa | 20628 kPa
719.8 ± 2.1 kg/m3: 23416 kPa | 23491 kPa
716.8 ± 2 kg/m3: 19651 kPa | 19679 kPa | 19796 kPa | 19819 kPa
727.7 ± 2.1 kg/m3: 34219 kPa | 34246 kPa | 34288 kPa | 34326 kPa | 34351 kPa | 34437 kPa
720.9 ± 2.1 kg/m3: 24815 kPa | 24897 kPa | 24935 kPa | 25058 kPa
727.8 ± 2.1 kg/m3: 34386 kPa | 34412 kPa
717.6 ± 2 kg/m3: 20695 kPa | 20769 kPa | 20801 kPa | 20841 kPa
727.3 ± 2.1 kg/m3: 33593 kPa | 33693 kPa | 33721 kPa | 33748 kPa | 33796 kPa | 33851 kPa | 33907 kPa
722.1 ± 2.1 kg/m3: 26462 kPa
721.1 ± 2.1 kg/m3: 25114 kPa | 25213 kPa | 25259 kPa
726.5 ± 2.1 kg/m3: 32812 kPa
718.8 ± 2 kg/m3: 22193 kPa | 22224 kPa | 22261 kPa | 22293 kPa
722.6 ± 2.1 kg/m3: 27328 kPa | 27371 kPa | 27419 kPa
720.4 ± 2.1 kg/m3: 24355 kPa
719.1 ± 2.1 kg/m3: 22649 kPa | 22677 kPa | 22726 kPa
719 ± 2 kg/m3: 22419 kPa | 22471 kPa | 22530 kPa | 22561 kPa
717.3 ± 2 kg/m3: 20228 kPa | 20284 kPa | 20356 kPa | 20390 kPa | 20464 kPa | 20494 kPa
725.2 ± 2.1 kg/m3: 30720 kPa | 30760 kPa | 30831 kPa | 30857 kPa | 30960 kPa
718.7 ± 2 kg/m3: 22074 kPa | 22115 kPa | 22162 kPa
727.4 ± 2.1 kg/m3: 33816 kPa | 34008 kPa
727 ± 2.1 kg/m3: 33213 kPa | 33366 kPa | 33434 kPa | 33473 kPa | 33508 kPa
726.4 ± 2.1 kg/m3: 32479 kPa | 32505 kPa | 32549 kPa | 32589 kPa | 32625 kPa
720 ± 2.1 kg/m3: 23766 kPa | 23797 kPa | 23979 kPa
724.6 ± 2.1 kg/m3: 29948 kPa
718 ± 2 kg/m3: 21280 kPa
722 ± 2.1 kg/m3: 26417 kPa | 26501 kPa
727.1 ± 2.1 kg/m3: 33404 kPa | 33553 kPa | 33633 kPa
717.5 ± 2 kg/m3: 20552 kPa | 20579 kPa | 20654 kPa | 20730 kPa
720.6 ± 2.1 kg/m3: 24586 kPa | 24618 kPa | 24656 kPa | 24700 kPa
726.8 ± 2.1 kg/m3: 33027 kPa | 33070 kPa | 33136 kPa | 33179 kPa | 33251 kPa
720.5 ± 2.1 kg/m3: 24402 kPa | 24433 kPa | 24481 kPa | 24513 kPa | 24550 kPa
727.5 ± 2.1 kg/m3: 33876 kPa | 33943 kPa | 33976 kPa | 34037 kPa | 34091 kPa
720.2 ± 2.1 kg/m3: 24224 kPa | 24260 kPa
719.6 ± 2.1 kg/m3: 23134 kPa | 23252 kPa | 23314 kPa
718.9 ± 2 kg/m3: 22345 kPa | 22381 kPa | 22498 kPa
725.6 ± 2.1 kg/m3: 31259 kPa | 31332 kPa
725.7 ± 2.1 kg/m3: 31667 kPa
724.5 ± 2.1 kg/m3: 29838 kPa | 29868 kPa | 29913 kPa
725.8 ± 2.1 kg/m3: 31592 kPa | 31630 kPa
718.4 ± 2 kg/m3: 21612 kPa | 21690 kPa | 21725 kPa | 21755 kPa
725.5 ± 2.1 kg/m3: 31190 kPa | 31218 kPa | 31295 kPa
725.3 ± 2.1 kg/m3: 30787 kPa | 30898 kPa | 31000 kPa
717 ± 2 kg/m3: 19885 kPa | 19934 kPa | 19963 kPa | 20083 kPa | 20116 kPa
720.1 ± 2.1 kg/m3: 23868 kPa | 23898 kPa | 23943 kPa | 24014 kPa | 24049 kPa | 24085 kPa
720.8 ± 2.1 kg/m3: 24783 kPa | 24859 kPa
718.1 ± 2 kg/m3: 21313 kPa | 21352 kPa | 21376 kPa | 21433 kPa
726.1 ± 2.1 kg/m3: 31921 kPa | 32038 kPa | 32086 kPa
718.3 ± 2 kg/m3: 21573 kPa | 21655 kPa
722.7 ± 2.1 kg/m3: 27273 kPa
720.3 ± 2.1 kg/m3: 24131 kPa | 24177 kPa | 24308 kPa
726.7 ± 2.1 kg/m3: 32670 kPa | 32910 kPa | 32948 kPa | 32985 kPa
716.9 ± 2 kg/m3: 19756 kPa | 19856 kPa | 19910 kPa | 19996 kPa
716.5 ± 2 kg/m3: 19314 kPa
717.9 ± 2 kg/m3: 21176 kPa | 21204 kPa | 21251 kPa
726 ± 2.1 kg/m3: 31859 kPa | 31956 kPa | 31994 kPa | 32125 kPa
717.2 ± 2 kg/m3: 20054 kPa | 20254 kPa | 20318 kPa
719.4 ± 2.1 kg/m3: 22849 kPa | 22927 kPa
719.3 ± 2.1 kg/m3: 22899 kPa | 22959 kPa | 23000 kPa | 23068 kPa
727.6 ± 2.1 kg/m3: 34062 kPa | 34116 kPa | 34150 kPa | 34176 kPa
721 ± 2.1 kg/m3: 25013 kPa | 25142 kPa | 25177 kPa
719 ± 2.1 kg/m3: 22611 kPa
724.7 ± 2.1 kg/m3: 29988 kPa
718.5 ± 2 kg/m3: 21901 kPa | 22007 kPa
719.5 ± 2.1 kg/m3: 23038 kPa | 23096 kPa | 23172 kPa | 23219 kPa | 23281 kPa
720.7 ± 2.1 kg/m3: 24738 kPa | 24974 kPa
726.9 ± 2.1 kg/m3: 33098 kPa | 33289 kPa | 33328 kPa
717.8 ± 2 kg/m3: 20959 kPa | 21022 kPa | 21055 kPa
